Results taken from the NIST ThermoML archive (doi:10.1016/j.jct.2006.03.006).
Numbers after ± are expanded uncertainties.

What was measured:
[1] = Liquid; for mass density: 298.15 K, 101.33 kPa, Pycnometric method
[2] = refractive index (Na D-line) (dimensionless); details: 298.15 K; 101.33 kPa; Liquid; Standard Abbe refractometry

With `CCO` [ethanol] the mass density [1] was 784.9 ± 4.5 kg/m3, the “vapor or sublimation pressure” value ([1]; 349.95 K) was 95.5 ± 5 kPa and the refractive index [2] was 1.3594 ± 0.0012.

For `CC(C)(C)O` [2-methylpropan-2-ol], the mass density [1] was 781.2 ± 4.5 kg/m3, the “vapor or sublimation pressure” value ([1]; 354.15 K) was 95.5 ± 5 kPa and the refractive index [2] was 1.3852 ± 0.0012.

For `CC(C)O` [propan-2-ol], the mass density [1] was 781.3 ± 4.5 kg/m3, the “vapor or sublimation pressure” value ([1]; 355.05 K) was 95.5 ± 5 kPa and the refractive index [2] was 1.3752 ± 0.0012.

In the case of `CCC(C)O` (configuration not stated) [butan-2-ol], the mass density [1] is reported as 802.4 ± 4.7 kg/m3, the “vapor or sublimation pressure” value ([1]; 371.26 K) is reported as 95.5 ± 5 kPa and the refractive index [2] is reported as 1.3953 ± 0.0012.

With `Cc1cccc(O)c1` [3-methylphenol] the mass density [1] was 1030 ± 7.7 kg/m3, the “vapor or sublimation pressure” value ([1]; 473.75 K) was 95.5 ± 5 kPa and the refractive index [2] was 1.5395 ± 0.0012.

For `CC(C)CO` [2-methyl-1-propanol], the mass density [1] was 797.8 ± 4.7 kg/m3, the “vapor or sublimation pressure” value ([1]; 379.65 K) was 95.5 ± 5 kPa and the refractive index [2] was 1.3939 ± 0.0012.

For `CCCO` [propan-1-ol], the mass density [1] was 799.6 ± 4.7 kg/m3, the “vapor or sublimation pressure” value ([1]; 368.85 K) was 95.5 ± 5 kPa and the refractive index [2] was 1.3837 ± 0.0012.

With `CCCCO` [butan-1-ol] the mass density [1] was 805.8 ± 4.8 kg/m3, the “vapor or sublimation pressure” value ([1]; 389.35 K) was 95.5 ± 5 kPa and the refractive index [2] was 1.3974 ± 0.0012.

With `CO` [methanol] the mass density [1] was 786.4 ± 4.6 kg/m3, the “vapor or sublimation pressure” value ([1]; 336.25 K) was 95.5 ± 5 kPa and the refractive index [2] was 1.3265 ± 0.0012.
